Laboratory results taken from PubChem BioAssay (NCI).
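Cultured in 96-well plates, cells were exposed to test compound for 48 hours across five concentrations. The concentration for full growth arrest is given as TGI.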

Legend:
Assay in all cases: inhibition of tumour cell growth, NCI panel, 48 h
UACC-62 melanoma = test system: UACC-62 melanoma
EKVX NSCLC = test system: EKVX NSCLC
SR leukemia = test system: SR leukemia
HCC-2998 colon = test system: HCC-2998 colon
786-0 renal = test system: 786-0 renal
MDA-MB-435 = test system: MDA-MB-435
NCI-H460 lung = test system: NCI-H460 lung
SF-268 CNS = test system: SF-268 CNS
A498 renal = test system: A498 renal
CCRF-CEM leukemia = test system: CCRF-CEM leukemia
HCT-116 colon = test system: HCT-116 colon
HL-60(TB) leukemia = test system: HL-60(TB) leukemia
IGROV1 ovarian = test system: IGROV1 ovarian
NCI/ADR-RES ovarian = test system: NCI/ADR-RES ovarian
MOLT-4 leukemia = test system: MOLT-4 leukemia
ACHN renal = test system: ACHN renal
M14 melanoma = test system: M14 melanoma
LOX IMVI melanoma = test system: LOX IMVI melanoma
HS 578T breast = test system: HS 578T breast
HCT-15 colon = test system: HCT-15 colon
MDA-N = test system: MDA-N
U251 CNS = test system: U251 CNS
MALME-3M melanoma = test system: MALME-3M melanoma
T-47D breast = test system: T-47D breast
RPMI-8226 leukemia = test system: RPMI-8226 leukemia
HT29 colon = test system: HT29 colon
BT-549 breast = test system: BT-549 breast
MCF7 breast = test system: MCF7 breast
TK-10 renal = test system: TK-10 renal
K-562 leukemia = test system: K-562 leukemia
NCI-H23 lung = test system: NCI-H23 lung
OVCAR-8 ovarian = test system: OVCAR-8 ovarian
RXF 393 renal = test system: RXF 393 renal
OVCAR-3 ovarian = test system: OVCAR-3 ovarian
SK-MEL-2 melanoma = test system: SK-MEL-2 melanoma
DU-145 prostate = test system: DU-145 prostate
PC-3 prostate = test system: PC-3 prostate
HOP-92 NSCLC = test system: HOP-92 NSCLC
SN12C renal = test system: SN12C renal
UACC-257 melanoma = test system: UACC-257 melanoma
CAKI-1 renal = test system: CAKI-1 renal
HOP-62 NSCLC = test system: HOP-62 NSCLC
SNB-75 CNS = test system: SNB-75 CNS
A549 NSCLC = test system: A549 NSCLC
UO-31 renal = test system: UO-31 renal
SNB-19 CNS = test system: SNB-19 CNS
NCI-H522 lung = test system: NCI-H522 lung
MDA-MB-231 breast = test system: MDA-MB-231 breast
OVCAR-4 ovarian = test system: OVCAR-4 ovarian
OVCAR-5 ovarian = test system: OVCAR-5 ovarian
SW-620 colon = test system: SW-620 colon
COLO 205 colon = test system: COLO 205 colon
SK-MEL-28 melanoma = test system: SK-MEL-28 melanoma
SF-539 CNS = test system: SF-539 CNS
KM12 colon = test system: KM12 colon
SK-MEL-5 melanoma = test system: SK-MEL-5 melanoma
SK-OV-3 ovarian = test system: SK-OV-3 ovarian
SF-295 CNS = test system: SF-295 CNS
NCI-H226 lung = test system: NCI-H226 lung

Nn1c(Nc2ccc(S(=O)(=O)Nc3ncccn3)cc2)nnc(/C=C/c2c(O)ccc3ccccc23)c1=O
TGI (UACC-62 melanoma): 52.6 µM
TGI (EKVX NSCLC): 69.6 µM
TGI (SR leukemia): 66.8 µM
TGI (HCC-2998 colon): 57.7 µM
TGI (786-0 renal): 73.6 µM
TGI (MDA-MB-435): 69.4 µM
TGI (NCI-H460 lung): 69.2 µM
TGI (SF-268 CNS): > 100 µM
TGI (A498 renal): 72.4 µM
TGI (CCRF-CEM leukemia): 47.9 µM
TGI (HCT-116 colon): 51.1 µM
TGI (HL-60(TB) leukemia): 45.2 µM
TGI (IGROV1 ovarian): > 100 µM
TGI (NCI/ADR-RES ovarian): 79.7 µM
TGI (MOLT-4 leukemia): > 100 µM
TGI (ACHN renal): 67.3 µM
TGI (M14 melanoma): 78.2 µM
TGI (LOX IMVI melanoma): > 100 µM
TGI (HS 578T breast): > 100 µM
TGI (HCT-15 colon): > 100 µM
TGI (MDA-N): > 100 µM
TGI (U251 CNS): > 100 µM
TGI (MALME-3M melanoma): 75.8 µM
TGI (T-47D breast): 96.8 µM
TGI (RPMI-8226 leukemia): > 100 µM
TGI (HT29 colon): > 100 µM
TGI (BT-549 breast): 60 µM
TGI (MCF7 breast): 60.3 µM
TGI (TK-10 renal): 75.8 µM
TGI (K-562 leukemia): > 100 µM
TGI (NCI-H23 lung): 45.6 µM
TGI (OVCAR-8 ovarian): > 100 µM
TGI (RXF 393 renal): 80.3 µM
TGI (OVCAR-3 ovarian): 55.9 µM
TGI (SK-MEL-2 melanoma): 51.1 µM
TGI (DU-145 prostate): > 100 µM
TGI (PC-3 prostate): > 100 µM
TGI (HOP-92 NSCLC): > 100 µM
TGI (SN12C renal): > 100 µM
TGI (UACC-257 melanoma): 55.2 µM
TGI (CAKI-1 renal): 89.9 µM
TGI (HOP-62 NSCLC): > 100 µM
TGI (SNB-75 CNS): 66.5 µM
TGI (A549 NSCLC): > 100 µM
TGI (UO-31 renal): > 100 µM
TGI (SNB-19 CNS): > 100 µM
TGI (NCI-H522 lung): 69.6 µM
TGI (MDA-MB-231 breast): 71 µM
TGI (OVCAR-4 ovarian): > 100 µM
TGI (OVCAR-5 ovarian): 91.9 µM
TGI (SW-620 colon): > 100 µM

COc1ccc(-c2[nH]c3c4c(nc5c(c24)C(=O)CC(C)(C)C5)CC(C)(C)C3)cc1
TGI (UACC-62 melanoma): > 100 µM
TGI (COLO 205 colon): > 100 µM
TGI (EKVX NSCLC): > 100 µM
TGI (SR leukemia): 92.1 µM
TGI (HCC-2998 colon): > 100 µM
TGI (786-0 renal): > 100 µM
TGI (MDA-MB-435): > 100 µM
TGI (SK-MEL-28 melanoma): > 100 µM
TGI (NCI-H460 lung): > 100 µM
TGI (SF-268 CNS): > 100 µM
TGI (A498 renal): > 100 µM
TGI (CCRF-CEM leukemia): > 100 µM
TGI (HCT-116 colon): > 100 µM
TGI (HL-60(TB) leukemia): > 100 µM
TGI (SF-539 CNS): > 100 µM
TGI (NCI/ADR-RES ovarian): > 100 µM
TGI (KM12 colon): > 100 µM
TGI (MOLT-4 leukemia): 94 µM
TGI (ACHN renal): > 100 µM
TGI (M14 melanoma): > 100 µM
TGI (LOX IMVI melanoma): > 100 µM
TGI (HS 578T breast): > 100 µM
TGI (HCT-15 colon): > 100 µM
TGI (MDA-N): > 100 µM
TGI (U251 CNS): > 100 µM
TGI (MALME-3M melanoma): > 100 µM
TGI (T-47D breast): > 100 µM
TGI (HT29 colon): > 100 µM
TGI (BT-549 breast): > 100 µM
TGI (MCF7 breast): > 100 µM
TGI (TK-10 renal): > 100 µM
TGI (K-562 leukemia): > 100 µM
TGI (NCI-H23 lung): > 100 µM
TGI (OVCAR-8 ovarian): > 100 µM
TGI (RXF 393 renal): > 100 µM
TGI (OVCAR-3 ovarian): > 100 µM
TGI (SK-MEL-2 melanoma): > 100 µM
TGI (DU-145 prostate): > 100 µM
TGI (PC-3 prostate): 92.6 µM
TGI (HOP-92 NSCLC): > 100 µM
TGI (SN12C renal): > 100 µM
TGI (SK-MEL-5 melanoma): > 100 µM
TGI (SK-OV-3 ovarian): > 100 µM
TGI (UACC-257 melanoma): > 100 µM
TGI (CAKI-1 renal): > 100 µM
TGI (SF-295 CNS): > 100 µM
TGI (HOP-62 NSCLC): > 100 µM
TGI (SNB-75 CNS): > 100 µM
TGI (A549 NSCLC): > 100 µM
TGI (NCI-H226 lung): > 100 µM
TGI (UO-31 renal): > 100 µM
TGI (SNB-19 CNS): > 100 µM
TGI (NCI-H522 lung): > 100 µM
TGI (MDA-MB-231 breast): > 100 µM
TGI (OVCAR-4 ovarian): > 100 µM
TGI (OVCAR-5 ovarian): > 100 µM
TGI (SW-620 colon): > 100 µM
